Read-outs that look alike come from different tables or passages of the source.

The subject of the experiment is DLD-1 BRCA2−/− cells. The experiment can be described thus: Homologous recombination synthetic lethal inhibition of proliferation, DLD-1 BRCA2-/- (Cell Titre Glo 3D). Format: cell-based. Particulars: Homo sapiens. The method, boiled down: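 Cells are seeded in RPMI 1640 (phenol red free, 10% FBS, GlutaMAX) onto pre-dosed compound (10 μM to 0.51 nM, three-fold). Plates are incubated at 37 °C, and medium plus compound are refreshed on day 6. Viability is read by CellTiter-Glo 3D at day 7 (DLD-1) or day 12 (DLD-1 BRCA2−/−), and the IC50 is fitted.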

[1] abbreviates: DLD-1, first proliferation column (c5), DLD-1 BRCA2-/-, read-out: POLQ PD Prolif Lumin (converted).
Setting [2] is: DLD-1, DLD-1 BRCA2 −/− cells, mean, read-out: POLQ PD Prolif Lumin BRCA2 −/− mean pIC50 (converted).
Setting [3] is: DLD-1, proliferation, luminescence, taken as DLD-1 BRCA2-/-, read-out: POLQ PD Prolif Lumin (converted).
Setting [4] is: DLD-1, DLD-1 BRCA2-/- proliferation, column head only partly shown, read-out: POLQ PD Prolif Lumin (converted).
Where [5] appears, read: DLD-1, first proliferation column, DLD-1 BRCA2-/-, read-out: POLQ PD Prolif Lumin (converted).
Setting [6] is: DLD-1, first proliferation column (c5), taken as DLD-1 BRCA2-/-, read-out: POLQ PD Prolif Lumin (converted).

Take `CNC(=O)COc1ccc(Cl)c(-c2nc3c(OC4(C)CC4)ncnc3n2Cc2cc(C)ccn2)c1` [Example T122, 2-(4-chloro-3-(6-(1-methylcyclopropoxy)-9-((4-methylpyridin-2-yl)methyl)-9H-purin-8-yl)phenoxy)-N-methylacetamide]: under setting [1], the IC50 is 6310 nM.
For the compound `CC1(Oc2ncnc3c2nc(-c2ccc(CC(N)=O)cc2Cl)n3Cc2ccnc(C(F)(F)F)c2)CC1` [Example T35, 2-(3-chloro-4-(6-(1-methylcyclopropoxy)-9-((2-(trifluoromethyl)pyridin-4-yl)methyl)-9H-purin-8-yl)phenyl)acetamide], the IC50 under setting [2] was 2510 nM.
Take `CC(CCCOc1cccc(-c2nc3c(OC4(C)CC4)ncnc3n2Cc2cccc(Cl)c2)c1Cl)C(=O)O` (single isomer, unassigned) [Example T443, 5-(2-chloro-3-(9-(3-chlorobenzyl)-6-(1-methylcyclopropoxy)-9H-purin-8-yl)phenoxy)-2-methylpentanoic acid]: under setting [3], the IC50 is 79.4 nM.
In the case of `CC1(Oc2ncnc3c2nc(-c2ccc(CC(N)=O)cc2Cl)n3Cc2nnc(C3CC3)s2)CC1` [Example T20, 2-(3-chloro-4-(9-((5-cyclopropyl-1,3,4-thiadiazol-2-yl)methyl)-6-(1-methylcyclopropoxy)-9H-purin-8-yl)phenyl)acetamide], the IC50 under setting [2] was 2510 nM.
On to `CC(=O)NCCOc1ccc(-c2nc3c(OC4(C)CC4)ncnc3n2Cc2cc(C)ccn2)c(Cl)c1` [Example T219, N-(2-(3-chloro-4-(6-(1-methylcyclopropoxy)-9-((4-methylpyridin-2-yl)methyl)-9H-purin-8-yl)phenoxy)ethyl)acetamide], for which the IC50 under setting [4] was 251 nM.
`Cc1ccnc(Cn2c(-c3ccc(OCC(=O)N4CCC[C@H]4CO)cc3Cl)nc3c(OC4(C)CC4)ncnc32)c1` [Example T576, (S)-2-(3-chloro-4-(6-(1-methylcyclopropoxy)-9-((4-methylpyridin-2-yl)methyl)-9H-purin-8-yl)phenoxy)-1-(2-(hydroxymethyl)pyrrolidin-1-yl)ethan-1-one]: under setting [5], the IC50 is 501 nM.
On to `Cc1nnc(Cn2c(-c3ccc(CC(N)=O)cc3Cl)nc3c(OC4(C)CC4)ncnc32)o1` [Example T2, 2-(3-chloro-4-(9-((5-methyl-1,3,4-oxadiazol-2-yl)methyl)-6-(1-methylcyclopropoxy)-9H-purin-8-yl)phenyl)acetamide], for which the IC50 under setting [2] is more than 10000 nM.
Regarding `COc1ncc(Cl)cc1Cn1c(-c2ccc(OCCC(C)C(=O)O)cc2Cl)nc2c(OC3(C)CC3)ncnc21` (racemic) [Example U53, 4-(3-chloro-4-(9-((5-chloro-2-methoxypyridin-3-yl)methyl)-6-(1-methylcyclopropoxy)-9H-purin-8-yl)phenoxy)-2-methylbutanoic acid], the IC50 (DLD-1, DLD-1 BRCA2 −/−, mean, read-out: POLQ PD Prolif Lumin BRCA2 −/− mean pIC50 (converted)) is 316 nM.
`CNC(=O)c1ccc(Cl)c(-c2nc3c(OC4(C)CC4)ncnc3n2Cc2cc(C)ccn2)c1` [Example T54, 4-chloro-N-methyl-3-(6-(1-methylcyclopropoxy)-9-((4-methylpyridin-2-yl)methyl)-9H-purin-8-yl)benzamide]: the IC50 under setting [2] was more than 10000 nM.
Consider `Cc1ccnc(Cn2c(-c3ccc(OCC(=O)N4CCC4)cc3Cl)nc3c(OC4(C)CC4)ncnc32)c1` [Example T312, 1-(azetidin-1-yl)-2-(3-chloro-4-(6-(1-methylcyclopropoxy)-9-((4-methylpyridin-2-yl)methyl)-9H-purin-8-yl)phenoxy)ethan-1-one], for which the IC50 under setting [6] is 200 nM.
As for `CC1(Oc2ncnc3c2nc(-c2ccc(CC(N)=O)cc2Cl)n3Cc2cc(F)ccc2C#N)CC1` [Example T79, 2-(3-chloro-4-(9-(2-cyano-5-fluorobenzyl)-6-(1-methylcyclopropoxy)-9H-purin-8-yl)phenyl)acetamide], under setting [2], the IC50 was 158 nM.
As to `CC1(Oc2ncnc3c2nc(-c2ccc(CC(N)=O)cc2Cl)n3Cc2cccc(Cl)c2)CC1` [Example T45, 2-(3-chloro-4-(9-(3-chlorobenzyl)-6-(1-methylcyclopropoxy)-9H-purin-8-yl)phenyl)acetamide], under setting [2], the IC50 is 50.1 nM.
`Cc1cccc(Cn2c(-c3ccc(OCCC(C)C(=O)O)cc3Cl)nc3c(OC4(C)CC4)ncnc32)c1C` (racemic) [Example T570, 4-(3-chloro-4-(9-(2,3-dimethylbenzyl)-6-(1-methylcyclopropoxy)-9H-purin-8-yl)phenoxy)-2-methylbutanoic acid]: the IC50 under setting [1] was 398 nM.
Regarding `Cc1ccnc(Cn2c(-c3ccc(OCC(=O)N4CCCC4)cc3Cl)nc3c(OC4(C)CC4)ncnc32)c1` [Example T467, 2-(3-chloro-4-(6-(1-methylcyclopropoxy)-9-((4-methylpyridin-2-yl)methyl)-9H-purin-8-yl)phenoxy)-1-(pyrrolidin-1-yl)ethan-1-one], the IC50 under setting [3] is 316 nM.
Regarding `Cc1ccnc(Cn2c(-c3ccc(OCC(=O)N4CC(F)C4)cc3Cl)nc3c(OC4(C)CC4)ncnc32)c1` [Example T283, 2-(3-chloro-4-(6-(1-methylcyclopropoxy)-9-((4-methylpyridin-2-yl)methyl)-9H-purin-8-yl)phenoxy)-1-(3-fluoroazetidin-1-yl)ethan-1-one], the IC50 under setting [4] is 158 nM.
With `Cc1cccc(Cn2c(-c3ccc(CC(N)=O)cc3Cl)nc3c(OC4(C)CC4)ncnc32)c1` [Example T99, 2-(3-chloro-4-(9-(3-methylbenzyl)-6-(1-methylcyclopropoxy)-9H-purin-8-yl)phenyl)acetamide], the IC50 under setting [2] was 79.4 nM.
In the case of `CNC(=O)[C@H]1CCN(c2ccc(-c3nc4c(OC5(C)CC5)ncnc4n3Cc3cc(C)ccn3)c(Cl)c2)C1` [Example T497, (S)-1-(3-chloro-4-(6-(1-methylcyclopropoxy)-9-((4-methylpyridin-2-yl)methyl)-9H-purin-8-yl)phenyl)-N-methylpyrrolidine-3-carboxamide], the IC50 under setting [1] was 501 nM.
On the same count and under the same terms, the figure for `Cc1ccc(C)c(Cn2c(-c3ccc(OCCC(C)C(=O)O)cc3Cl)nc3c(OC4(C)CC4)ncnc32)c1` (single isomer, unassigned) [Example T572, 4-(3-chloro-4-(9-(2,5-dimethylbenzyl)-6-(1-methylcyclopropoxy)-9H-purin-8-yl)phenoxy)-2-methylbutanoic acid] is 631 nM.
With `Cc1ccnc(Cn2c(-c3ccc(OCCN4CCOCC4=O)cc3Cl)nc3c(OC4(C)CC4)ncnc32)c1` [Example T481, 4-(2-(3-chloro-4-(6-(1-methylcyclopropoxy)-9-((4-methylpyridin-2-yl)methyl)-9H-purin-8-yl)phenoxy)ethyl)morpholin-3-one], the IC50 under setting [3] is 316 nM.
In the case of `CC(Cc1ccccn1)n1c(-c2ccc(OCCN3CCNCC3)cc2Cl)nc2c(OC3(C)CC3)ncnc21` (single isomer, unassigned) [Example S7, 8-(2-chloro-4-(2-(piperazin-1-yl)ethoxy)phenyl)-6-(1-methylcyclopropoxy)-9-(1-(pyridin-2-yl)propan-2-yl)-9H-purine], the IC50 (DLD-1, 288 h, DLD-1 BRCA2−/− cells, 12 days, read-out: POLQ PD Prolif Lumin BRCA2 −/− mean pIC50 (converted)) is 6310 nM.
In the case of `Cc1ccnc(Cn2c(-c3ccc(OCC(=O)N4CCC(O)CC4)cc3Cl)nc3c(OC4(C)CC4)ncnc32)c1` [Example T580, 2-(3-chloro-4-(6-(1-methylcyclopropoxy)-9-((4-methylpyridin-2-yl)methyl)-9H-purin-8-yl)phenoxy)-1-(4-hydroxypiperidin-1-yl)ethan-1-one], under setting [5], the IC50 was 501 nM.
With `Cc1cnn(C)c1Cn1c(-c2ccc(CC(N)=O)cc2Cl)nc2c(OC3(C)CC3)ncnc21` [Example T31, 2-(3-chloro-4-(9-((1,4-dimethyl-1H-pyrazol-5-yl)methyl)-6-(1-methylcyclopropoxy)-9H-purin-8-yl)phenyl)acetamide], under setting [2], the IC50 is more than 10000 nM.
For `Cc1ccnc(Cn2c(-c3ccc(N4CCOCC4=O)cc3Cl)nc3c(OC4(C)CC4)ncnc32)c1` [Example T182, 4-(3-chloro-4-(6-(1-methylcyclopropoxy)-9-((4-methylpyridin-2-yl)methyl)-9H-purin-8-yl)phenyl)morpholin-3-one], the IC50 under setting [1] is 631 nM.
With `Cc1ccnc(Cn2c(-c3ccc(OCC(C)(C)CO)cc3Cl)nc3c(OC4(C)CC4)ncnc32)c1` [Example T383, 3-(3-chloro-4-(6-(1-methylcyclopropoxy)-9-((4-methylpyridin-2-yl)methyl)-9H-purin-8-yl)phenoxy)-2,2-dimethylpropan-1-ol], under setting [6], the IC50 was 126 nM.
In the case of `CC(CCOc1ccc(-c2nc3c(OC4(C)CC4)ncnc3n2Cc2cc(F)cc(Cl)c2)c(Cl)c1)C(=O)O` (single isomer, unassigned) [Example T272, 4-(3-chloro-4-(9-(3-chloro-5-fluorobenzyl)-6-(1-methylcyclopropoxy)-9H-purin-8-yl)phenoxy)-2-methylbutanoic acid], under setting [4], the IC50 was 200 nM.

The values are drawn from US20250195530A1, “POLQ INHIBITORS” (ASTRAZENECA AB, priority 2022, published 2025).
